Data: ChEMBL document CHEMBL1201862, “PubChem BioAssay data set” (2004)
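Method: 48-hour compound exposure of cells in 96-well plates, five concentrations, linear interpolation of endpoints. Abbreviation: GI50, concentration required for 50% inhibition of growth.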 Calls of active or inactive are those of the source. Rule as the data show it: active = GI50 up to about 1.1 µM and inactive = higher.

What was measured:
Experiment in all cases: NCI-60 cell line screen, 48 h
MDA-N = test system: MDA-N
MDA-MB-231 = test system: MDA-MB-231
MCF7 = test system: MCF7
MDA-MB-435 = test system: MDA-MB-435
T47D = test system: T47D

Row | SMILES | GI50 (MDA-N) | GI50 (MDA-MB-231) | GI50 (MCF7) | GI50 (MDA-MB-435) | GI50 (T47D)
1 | C=CC(C)CCC(C/C=C(\C)CCCC(C)C)C(=C)CCCC(C)C (configuration not stated) | > 100 µM (inactive) | > 100 µM (inactive) | > 100 µM (inactive) | > 100 µM (inactive) | > 100 µM (inactive)
2 | OC1(C(O)(c2ccc(-c3ccccc3)cc2)c2ccc(-c3ccccc3)cc2)CCCCC1 | > 100 µM (inactive) | > 100 µM (inactive) | 96.8 µM (inactive) | > 100 µM (inactive) | > 100 µM (inactive)
3 | Sc1ncnc2c1ncn2Cc1ccco1 | > 100 µM (inactive) | > 100 µM (inactive) | > 100 µM (inactive) | > 100 µM (inactive) | > 100 µM (inactive)
4 | CC(=O)/C(=C/NC(=S)Nc1ccc(Cl)c(Cl)c1)C(=O)Nc1ccccc1C | 25.3 µM (inactive) | 27.8 µM (inactive) | 26.9 µM (inactive) | 28.3 µM (inactive) | 4.65 µM (inactive)
5 | C=C1c2nc3ccccc3n2C=C(c2ccc(OC)cc2)N1c1ccccc1 | 1.43 µM (inactive) | 11.1 µM (inactive) | 4.76 µM (inactive) | 1.17 µM (inactive) | 6.4 µM (inactive)
6 | O=S(=O)(N/N=C1\CC2CCC1C2)c1ccccc1 (configuration not stated) | > 100 µM (inactive) | – | > 100 µM (inactive) | > 100 µM (inactive) | –
7 | CCCNC(=O)NNC(=O)c1c[nH]c2nc(C)ccc2c1=O | > 100 µM (inactive) | > 100 µM (inactive) | > 100 µM (inactive) | > 100 µM (inactive) | > 100 µM (inactive)
8 | CC(=NNC(=S)Nc1ccccc1C)c1cccc(C(C)=NNC(=S)Nc2ccccc2C)n1 | > 100 µM (inactive) | – | 65.2 µM (inactive) | 60.4 µM (inactive) | > 100 µM (inactive)
9 | COC(=O)CNS(=O)(=O)c1ccc(-c2c3nc(c(-c4ccc(S(=O)(=O)NCC(=O)OC)cc4)c4ccc([nH]4)c(-c4ccc(S(=O)(=O)NCC(=O)OC)cc4)c4nc(c(-c5ccc(S(=O)(=O)NCC(=O)OC)cc5)c5ccc2[nH]5)C=C4)C=C3)cc1 | > 100 µM (inactive) | 42.2 µM (inactive) | > 100 µM (inactive) | > 100 µM (inactive) | > 100 µM (inactive)
10 | COc1c(CCl)cc(-c2cc(=O)c3ccccc3s2)cc1CCl | 6.08 µM (inactive) | 2.76 µM (inactive) | 1.91 µM (inactive) | > 100 µM (inactive) | 1.66 µM (inactive)
11 | N#Cc1nc(COCCOCc2ccc(F)cc2)oc1N | – | > 100 µM (inactive) | > 100 µM (inactive) | > 100 µM (inactive) | > 100 µM (inactive)
12 | Nc1nc(N)nc(CC(=O)O)n1 | > 100 µM (inactive) | > 100 µM (inactive) | > 100 µM (inactive) | > 100 µM (inactive) | > 100 µM (inactive)
13 | COc1ccc2nc3c([N+](=O)[O-])ccc(NCCN(C)C)c3c(N)c2c1 | 1.73 µM (inactive) | 0.234 µM (active) | 0.513 µM (active) | – | 1.17 µM (inactive)
14 | COc1cc(OC)cc(Oc2nc3ccc(C(F)(F)F)cc3nc2-c2ccccc2)c1 | > 100 µM (inactive) | > 100 µM (inactive) | > 100 µM (inactive) | > 100 µM (inactive) | 28.4 µM (inactive)
15 | COc1ccc(/C=C/C(=N/NC(=O)N/N=C(/C=C/c2ccc(OC)cc2)C(C)(C)CN2CCCCC2)C(C)(C)CN2CCCCC2)cc1 | 1.64 µM (inactive) | – | 2.35 µM (inactive) | – | 1.99 µM (inactive)
16 | C/C(Cl)=N\OC(=O)Nc1ccc(C)cc1 | 16.3 µM (inactive) | 20.3 µM (inactive) | 11.9 µM (inactive) | – | 16 µM (inactive)
17 | Cc1cc2nc3c(C#N)c4c(c(Nc5ccc(Cl)cc5)n3c2cc1C)CCC4 | – | 20.8 µM (inactive) | – | 33.5 µM (inactive) | 30.5 µM (inactive)
18 | N#CC[C@@H](O)COc1ccccc1 | > 100 µM (inactive) | > 100 µM (inactive) | > 100 µM (inactive) | > 100 µM (inactive) | > 100 µM (inactive)
19 | C/C=C(/C)C(=O)OC1CC(C)[C@H]2CC(=O)C(C)=C2CC1C(C)(C)OC(C)=O (some centres not stated) | 34.2 µM (inactive) | 31.7 µM (inactive) | 40.6 µM (inactive) | 28 µM (inactive) | 15.4 µM (inactive)
20 | COc1ccc(N2C(=O)C(Cl)C2c2cc3cc(Br)ccc3nc2Cl)cc1 (configuration not stated) | 5.31 µM (inactive) | 4.57 µM (inactive) | 4.82 µM (inactive) | 4.71 µM (inactive) | 15.1 µM (inactive)
21 | CC(=O)Oc1cc(/C=C/c2ccc(O)cc2)cc(OC(C)=O)c1 | – | 25.5 µM (inactive) | 40 µM (inactive) | 28.1 µM (inactive) | 51.3 µM (inactive)
22 | COC(=O)C(=O)Nc1cc2c3c(c1)Oc1cccc4c1C3(C)c1c(cccc1O2)O4 | > 100 µM (inactive) | > 100 µM (inactive) | > 100 µM (inactive) | > 100 µM (inactive) | > 61.7 µM (inactive)
23 | COC(=O)/C=C/c1ccc2c(c1)CC1(Cc3ccccc3C1)C2 | 87.5 µM (inactive) | > 100 µM (inactive) | > 100 µM (inactive) | 41.3 µM (inactive) | > 100 µM (inactive)

Row | SMILES | GI50 (MDA-N) | GI50 (MDA-MB-231) | GI50 (MCF7) | GI50 (MDA-MB-435) | GI50 (T47D)
24 | OC1C2CN3CCN(C2)CC1(c1ccccc1)C3 (configuration not stated) | > 100 µM (inactive) | > 100 µM (inactive) | > 100 µM (inactive) | > 100 µM (inactive) | –
25 | C/C(=N/NC(=S)Nc1ccc([N+](=O)[O-])cc1)c1cccc(/C(C)=N\NC(=S)Nc2ccc([N+](=O)[O-])cc2)n1 | 2.35 µM (inactive) | 0.56 µM (active) | 0.341 µM (active) | 0.931 µM (active) | 2.16 µM (inactive)
26 | COc1ccc(C(SCCO)(c2ccccc2)c2ccc(OC)cc2)cc1 | 5.32 µM (inactive) | 9.64 µM (inactive) | 5.36 µM (inactive) | 5.65 µM (inactive) | 11.9 µM (inactive)
27 | CO[C@H]1C[C@H](O[C@H]2CC[C@@]3(C)[C@H](CC[C@@H]4[C@@H]3CC[C@]3(C)[C@@H](C5=CC(=O)OC5)CC[C@]43O)C2)O[C@H](C)[C@H]1O | < 0.01 µM (active) | 0.0498 µM (active) | < 0.01 µM (active) | < 0.0111 µM (active) | < 0.01 µM (active)
28 | CSS(C)(=O)=O | – | 30.8 µM (inactive) | 26.7 µM (inactive) | 20.2 µM (inactive) | 15.1 µM (inactive)
29 | c1ccc(-c2ccc(-c3ccc(C4=NCCN4)cc3)o2)cc1 | – | 2 µM (inactive) | 1.91 µM (inactive) | 1.97 µM (inactive) | 2.65 µM (inactive)
30 | COc1ccc(/C=C/c2cc(O)cc(OC3OC(CO)C(O)C(O)C3O)c2)cc1O (configuration not stated) | > 100 µM (inactive) | > 100 µM (inactive) | > 100 µM (inactive) | 82.4 µM (inactive) | > 100 µM (inactive)
31 | CCOP(C)(=O)C(Cc1c[nH]c2ccccc12)C(=O)O (configuration not stated) | > 100 µM (inactive) | > 100 µM (inactive) | > 100 µM (inactive) | > 100 µM (inactive) | > 100 µM (inactive)
32 | O=C1/C(=C\c2cccc(Oc3ccccc3)c2)SC(c2ccccc2)N1c1cc(Cl)ccc1Cl (configuration not stated) | 18.4 µM (inactive) | 32.4 µM (inactive) | 25.9 µM (inactive) | 32.3 µM (inactive) | 28.4 µM (inactive)
33 | N#C/C(=C1/c2cc([N+](=O)[O-])ccc2-c2c1cc([N+](=O)[O-])cc2[N+](=O)[O-])N1CCCCC1 | > 100 µM (inactive) | > 100 µM (inactive) | 19 µM (inactive) | > 100 µM (inactive) | > 100 µM (inactive)
34 | CC(C)(C)O/N=C/c1cc(NC(=S)c2ccsc2)ccc1Cl | 15.2 µM (inactive) | 16.4 µM (inactive) | 11.2 µM (inactive) | 14.6 µM (inactive) | 4.01 µM (inactive)
35 | CSC1(SC2=NCCN2)SC2(NCCN2)S1 | 20.5 µM (inactive) | 21.1 µM (inactive) | 3.18 µM (inactive) | 15.4 µM (inactive) | 0.9 µM (active)
36 | CN(C)c1ccc(/C=C2\Oc3ccccc3C2=O)cc1 | 34.8 µM (inactive) | > 100 µM (inactive) | 54.1 µM (inactive) | 56.8 µM (inactive) | > 100 µM (inactive)
37 | Cc1nnc2nc(-c3ccc(Cl)cc3Cl)cc(-c3ccc(Cl)cc3)n12 | > 100 µM (inactive) | 47.5 µM (inactive) | 31 µM (inactive) | > 100 µM (inactive) | 89.1 µM (inactive)
38 | CC(=O)OC1C(O)COC(O[C@H]2CC[C@]34C[C@]35CC[C@]3(C)C([C@@]6(C)CC[C@@H](C(C)(C)O)O6)[C@@H](O)C[C@@]3(C)C5C[C@H](OC3OCC(O)C(O)C3O)[C@H]4C2(C)C)C1OC1OCC(O)C(O)C1O (some centres not stated) | > 100 µM (inactive) | > 100 µM (inactive) | > 100 µM (inactive) | > 100 µM (inactive) | > 100 µM (inactive)
39 | CCOC(=O)c1c(-c2ccc(OC)cc2)c(C#N)c(=S)n(C2OC(COC(C)=O)C(OC(C)=O)C(OC(C)=O)C2OC(C)=O)c1C (configuration not stated) | > 100 µM (inactive) | > 100 µM (inactive) | > 100 µM (inactive) | > 100 µM (inactive) | 47.6 µM (inactive)
40 | O=S(=O)(O)c1cc(/N=N/c2c(O)ccc3ccccc23)cc2c(S(=O)(=O)O)cccc12 | – | > 100 µM (inactive) | > 100 µM (inactive) | > 100 µM (inactive) | –
41 | COc1cc(C/C=C/c2ccccc2)c(OC)cc1O [VIOLASTYRENE] | 17.9 µM (inactive) | 15.1 µM (inactive) | – | 18.5 µM (inactive) | 17.4 µM (inactive)
42 | CC(NO)/C(=N/O)c1ccco1 (configuration not stated) | > 10 µM (inactive) | > 10 µM (inactive) | > 10 µM (inactive) | > 10 µM (inactive) | > 10 µM (inactive)
43 | Oc1ccc(/C=N/c2ccccc2O)cc1 | 18.3 µM (inactive) | 51.1 µM (inactive) | 27.4 µM (inactive) | 16.9 µM (inactive) | 73.5 µM (inactive)
44 | CC(=O)OCCOCn1cnc2c(Cl)nc(Cl)nc21 | 17.4 µM (inactive) | 15.3 µM (inactive) | > 10 µM (inactive) | 17.3 µM (inactive) | 10 µM (inactive)
45 | Cc1nc2ccc(F)cc2c2c1CCO2 | 27.7 µM (inactive) | 20.1 µM (inactive) | – | 70.1 µM (inactive) | 52.6 µM (inactive)
